Test results from US8053465B2, “Bicycloester derivative” (Kyorin Pharmaceutical Co., Ltd., priority 2004, dated 2011).

Assays:
[1] = target: T1, plasma dipeptidylpeptidase IV (Homo sapiens, UniProt P27487); assay: In vitro dipeptidylpeptidase IV inhibitory activity (plasma, H-Gly-Pro-AMC fluorometry); type: biochemical; conditions: plasma diluted 8-fold, H-Gly-Pro-AMC.HBr substrate, room temperature 20 minutes
T1 construct: 20 μL of plasma diluted 8-fold with saline in a well of a 96-well flat bottom plate; from tissue
T1 sequence (P27487 whole entry): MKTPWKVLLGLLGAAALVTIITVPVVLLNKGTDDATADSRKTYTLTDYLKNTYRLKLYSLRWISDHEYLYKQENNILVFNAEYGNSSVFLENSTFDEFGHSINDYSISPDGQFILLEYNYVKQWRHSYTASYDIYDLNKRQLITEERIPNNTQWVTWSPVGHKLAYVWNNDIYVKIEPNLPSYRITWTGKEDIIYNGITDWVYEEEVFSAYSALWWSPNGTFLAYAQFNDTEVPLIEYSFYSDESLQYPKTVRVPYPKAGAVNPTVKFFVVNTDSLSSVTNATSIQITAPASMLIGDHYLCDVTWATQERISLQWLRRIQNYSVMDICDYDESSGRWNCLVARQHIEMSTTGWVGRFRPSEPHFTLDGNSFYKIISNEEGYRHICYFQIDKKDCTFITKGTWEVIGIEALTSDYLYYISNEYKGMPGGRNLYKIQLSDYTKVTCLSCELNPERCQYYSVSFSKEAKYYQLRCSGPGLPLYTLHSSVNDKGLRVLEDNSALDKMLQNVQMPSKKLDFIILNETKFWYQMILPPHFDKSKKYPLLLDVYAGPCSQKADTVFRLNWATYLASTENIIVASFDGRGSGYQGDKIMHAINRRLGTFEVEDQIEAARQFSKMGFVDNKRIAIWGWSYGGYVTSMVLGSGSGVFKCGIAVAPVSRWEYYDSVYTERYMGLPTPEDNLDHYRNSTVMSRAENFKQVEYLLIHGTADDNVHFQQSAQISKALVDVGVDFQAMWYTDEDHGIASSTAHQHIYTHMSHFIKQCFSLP
Protocol: The concentration of free 7-amino-4-methyl-coumarin (AMC) generated by hydrolysis of H-Gly-Pro-AMC.HBr substrate by plasma dipeptidylpeptidase IV was determined by fluorometry.
A 20 μL of buffer (25 mmol/L hepes, 140 mmol/L sodium chloride, 1% bovine serum albumin, 80 mmol/L magnesium chloride hexahydrate, pH 7.4) containing each compound was added to 20 μL of plasma diluted 8-fold with saline in a well of a 96-well flat bottom plate. The plate was left at room temperature for 5 minutes and 10 μL of 0.1 mmol/L H-Gly-Pro-AMC.HBr solution was added to each well to initiate the reaction. […] Using a fluorescent plate reader, the free AMC concentration was determined by exciting the samples at 355 nm and measuring the fluorescence intensity at 460 nm.

[2] = target: T2, plasma dipeptidylpeptidase IV (Mus musculus, UniProt P28843); assay: Inhibition of plasma dipeptidylpeptidase IV activity in mice by oral administration; type: in vivo; conditions: male ICR mice, 0.1 mg/mL suspension at 10 mL/kg, 30 minutes after administration
T2 construct: The blood samples were centrifuged at 6000 rpm for 2 minutes to separate plasma; tissue Charles River Laboratories Japan; host or cells: plasma of male ICR mice
T2 sequence (P28843 whole entry): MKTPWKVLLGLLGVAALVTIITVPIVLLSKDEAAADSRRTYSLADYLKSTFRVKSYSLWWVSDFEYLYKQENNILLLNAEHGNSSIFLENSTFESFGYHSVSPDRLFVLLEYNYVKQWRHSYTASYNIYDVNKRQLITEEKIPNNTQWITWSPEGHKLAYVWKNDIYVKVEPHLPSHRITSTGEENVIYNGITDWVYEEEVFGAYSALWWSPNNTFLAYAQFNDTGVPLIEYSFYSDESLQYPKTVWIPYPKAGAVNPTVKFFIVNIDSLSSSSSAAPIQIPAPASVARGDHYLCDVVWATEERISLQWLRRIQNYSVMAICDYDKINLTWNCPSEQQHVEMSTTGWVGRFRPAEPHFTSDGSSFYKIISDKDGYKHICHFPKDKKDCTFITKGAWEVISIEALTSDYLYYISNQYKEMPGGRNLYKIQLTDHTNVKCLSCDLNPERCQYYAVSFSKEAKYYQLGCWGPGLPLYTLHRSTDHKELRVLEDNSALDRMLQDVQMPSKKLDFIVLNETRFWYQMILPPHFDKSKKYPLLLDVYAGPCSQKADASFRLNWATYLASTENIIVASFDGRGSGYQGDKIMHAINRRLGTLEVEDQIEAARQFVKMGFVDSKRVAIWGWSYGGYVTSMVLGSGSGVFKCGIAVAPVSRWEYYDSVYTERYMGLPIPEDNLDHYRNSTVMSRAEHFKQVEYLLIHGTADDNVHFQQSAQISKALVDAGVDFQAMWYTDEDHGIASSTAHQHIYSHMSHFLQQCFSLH
Protocol: Each compound was suspended in 0.3% sodium carboxymethylcellulose to a concentration of 0.1 mg/mL. The preparation was orally administered to 8-week old male ICR mice (Charles River Laboratories Japan) at a dose of 10 mL/kg. Using an EDTA 2K-treated capillary tube, blood samples were collected from the tail vein before administration and 30 minutes after administration. The blood samples were centrifuged at 6000 rpm for 2 minutes to separate plasma. […] The inhibition was determined from the decrease in the enzymatic activity from the initial activity (% inhibition={(activity before administration−activity after administration)/(activity before administration)}×100).

| IC50 [1] [nM] | inhibition at 100 µg/mL (stock) [2] [%] | SMILES |
| --- | --- | --- |
| 0.25 | 100 | CCOC(=O)C12CCC(NCC(=O)N3C[C@@H](F)C[C@H]3C#N)(CC1)CC2 [Example 1, (2S,4S)-1-[[N-(4-ethoxycarbonylbicyclo[2.2.2]oct-1-yl)amino]acetyl]-4-fluoropyrrolidine-2-carbonitrile] |
| 0.48 | 94 | N#C[C@@H]1C[C@H](F)CN1C(=O)CNC12CCC(C(=O)OCC3CC3)(CC1)CC2 [Example 9, (2S,4S)-1-[[N-(4-cyclopropylmethyloxycarbonylbicyclo[2.2.2]oct-1-yl)amino]acetyl]-4-fluoropyrrolidine-2-carbonitrile] |
| 0.23 | – | N#C[C@@H]1C[C@H](F)CN1C(=O)CNC12CCC(C(=O)OCc3ccc(C(F)(F)F)cc3)(CC1)CC2 [Example 10, (2S,4S)-4-fluoro-1-[[N-[4-(4-trifluoromethylbenzyl)oxycarbonylbicyclo[2.2.2]oct-1-yl]amino]acetyl]pyrrolidine-2-carbonitrile] |
| 0.13 | 93 | CC(C)COC(=O)C12CCC(NCC(=O)N3C[C@@H](F)C[C@H]3C#N)(CC1)CC2 [Example 11, (2S,4S)-4-fluoro-1-[[N-[4-(2-methylpropyl)oxycarbonylbicyclo[2.2.2]oct-1-yl]amino]acetyl]pyrrolidine-2-carbonitrile] |
